Results reported in publication PMC3961306, “Comparison of the Cancer Gene Targeting and Biochemical Selectivities of All Targeted Kinase Inhibitors Approved for Clinical Use” (PLoS ONE, 2014).

Key:
Experiment in all cases: Kinase profiling in a biochemical assay panel (mobility shift assays and ELISA), %-inhibition at 1 μM; selectivity entropy
[1] = target: panel of more than 300 wild-type and mutant kinases (313 kinase panel) (Homo sapiens, UniProt Q15119)
[2] = target: panel of more than 300 wild-type and mutant kinases (313 kinase panel) (Homo sapiens, UniProt P16234, T674I)
[3] = target: panel of more than 300 wild-type and mutant kinases (313 kinase panel) (Homo sapiens, UniProt P42336)
[4] = target: panel of more than 300 wild-type and mutant kinases (313 kinase panel) (Homo sapiens, UniProt P08922)
[5] = target: panel of more than 300 wild-type and mutant kinases (313 kinase panel) (Homo sapiens, UniProt P17612)
[6] = target: T1, panel of more than 300 wild-type and mutant kinases (313 kinase panel) (Homo sapiens, UniProt Q13470)
T1 sequence (Q13470 1-666): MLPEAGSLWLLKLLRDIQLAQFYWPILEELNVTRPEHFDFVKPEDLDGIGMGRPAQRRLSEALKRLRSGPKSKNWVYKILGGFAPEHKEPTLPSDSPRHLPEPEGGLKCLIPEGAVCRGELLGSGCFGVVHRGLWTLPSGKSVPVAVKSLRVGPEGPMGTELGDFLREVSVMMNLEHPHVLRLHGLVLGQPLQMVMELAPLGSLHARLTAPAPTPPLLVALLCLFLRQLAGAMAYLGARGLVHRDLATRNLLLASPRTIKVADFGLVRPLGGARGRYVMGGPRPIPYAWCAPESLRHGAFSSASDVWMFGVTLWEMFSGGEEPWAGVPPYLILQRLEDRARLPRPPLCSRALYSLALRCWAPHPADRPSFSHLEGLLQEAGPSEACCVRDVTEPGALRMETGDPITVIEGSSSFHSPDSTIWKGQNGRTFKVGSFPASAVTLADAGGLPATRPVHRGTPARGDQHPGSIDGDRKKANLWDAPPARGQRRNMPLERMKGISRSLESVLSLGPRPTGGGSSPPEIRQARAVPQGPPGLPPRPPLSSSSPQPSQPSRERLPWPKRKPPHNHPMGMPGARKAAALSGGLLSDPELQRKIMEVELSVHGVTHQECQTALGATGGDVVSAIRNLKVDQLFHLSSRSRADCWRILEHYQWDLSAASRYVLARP

[7] = target: T2, panel of more than 300 wild-type and mutant kinases (313 kinase panel) (Homo sapiens, UniProt O00418)
T2 sequence (O00418 1-725): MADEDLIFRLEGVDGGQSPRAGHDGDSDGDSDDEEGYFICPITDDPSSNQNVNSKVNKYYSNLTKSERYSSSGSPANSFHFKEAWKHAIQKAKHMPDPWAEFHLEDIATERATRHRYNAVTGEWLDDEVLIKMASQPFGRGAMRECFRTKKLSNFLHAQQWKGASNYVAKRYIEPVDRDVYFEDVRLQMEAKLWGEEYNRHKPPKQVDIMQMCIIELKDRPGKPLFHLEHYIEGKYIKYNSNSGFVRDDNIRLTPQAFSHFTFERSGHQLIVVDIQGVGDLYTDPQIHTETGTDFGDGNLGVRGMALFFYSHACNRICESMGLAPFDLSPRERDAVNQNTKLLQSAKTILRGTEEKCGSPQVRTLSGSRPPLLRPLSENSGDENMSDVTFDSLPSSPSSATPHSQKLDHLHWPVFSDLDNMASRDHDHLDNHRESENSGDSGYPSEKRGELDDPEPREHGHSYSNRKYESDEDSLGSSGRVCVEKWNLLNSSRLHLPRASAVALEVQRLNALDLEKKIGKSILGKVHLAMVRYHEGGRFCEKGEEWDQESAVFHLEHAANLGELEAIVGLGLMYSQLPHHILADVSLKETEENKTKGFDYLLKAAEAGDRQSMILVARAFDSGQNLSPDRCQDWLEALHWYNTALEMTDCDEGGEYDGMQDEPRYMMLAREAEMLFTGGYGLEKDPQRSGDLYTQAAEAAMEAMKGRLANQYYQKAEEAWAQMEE

[8] = target: panel of more than 300 wild-type and mutant kinases (313 kinase panel) (Homo sapiens, UniProt P54756)
[9] = target: panel of more than 300 wild-type and mutant kinases (313 kinase panel) (Homo sapiens, UniProt Q9Y6E0)
[10] = target: panel of more than 300 wild-type and mutant kinases (313 kinase panel) (Homo sapiens, UniProt Q8TDX7)

panel of more than 300 wild-type and mutant kinases (313 kinase panel) (Homo sapiens, UniProt P16234, T674I), sequence (P16234 24-1089 T674I): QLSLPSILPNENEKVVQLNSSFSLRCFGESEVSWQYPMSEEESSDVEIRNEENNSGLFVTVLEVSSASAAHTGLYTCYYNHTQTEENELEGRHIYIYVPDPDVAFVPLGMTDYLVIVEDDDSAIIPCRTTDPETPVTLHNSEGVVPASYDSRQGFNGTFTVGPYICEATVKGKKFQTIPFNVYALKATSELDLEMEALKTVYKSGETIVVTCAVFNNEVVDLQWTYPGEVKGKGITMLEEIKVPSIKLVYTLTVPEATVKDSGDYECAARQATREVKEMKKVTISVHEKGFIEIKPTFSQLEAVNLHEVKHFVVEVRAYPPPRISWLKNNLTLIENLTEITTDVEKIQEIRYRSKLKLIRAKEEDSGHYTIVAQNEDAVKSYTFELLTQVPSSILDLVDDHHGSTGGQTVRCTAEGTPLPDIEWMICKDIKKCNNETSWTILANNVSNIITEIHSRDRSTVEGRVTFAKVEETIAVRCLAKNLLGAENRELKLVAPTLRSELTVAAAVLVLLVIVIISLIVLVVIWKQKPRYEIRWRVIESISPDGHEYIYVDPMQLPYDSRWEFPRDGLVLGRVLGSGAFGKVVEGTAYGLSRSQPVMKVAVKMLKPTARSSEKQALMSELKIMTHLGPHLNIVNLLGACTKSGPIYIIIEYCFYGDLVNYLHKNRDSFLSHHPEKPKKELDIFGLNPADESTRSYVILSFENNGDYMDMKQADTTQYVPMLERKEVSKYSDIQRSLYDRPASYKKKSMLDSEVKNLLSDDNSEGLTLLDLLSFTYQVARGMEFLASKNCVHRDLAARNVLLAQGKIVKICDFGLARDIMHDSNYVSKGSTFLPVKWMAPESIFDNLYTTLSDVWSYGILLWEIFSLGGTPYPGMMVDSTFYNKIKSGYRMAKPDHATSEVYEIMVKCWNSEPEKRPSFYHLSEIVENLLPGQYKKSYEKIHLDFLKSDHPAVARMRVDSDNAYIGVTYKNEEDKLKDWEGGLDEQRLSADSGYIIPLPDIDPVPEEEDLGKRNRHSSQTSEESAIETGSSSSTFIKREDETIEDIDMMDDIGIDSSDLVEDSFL

| SMILES | %-inhibition of PDHK2 ([1]; kinase PDHK2, 1 μM) | %-inhibition of PDGFRα(T674I) ([2]; kinase PDGFRα(T674I), 1 μM) | %-inhibition of PIK3CA/PIK3R1 ([3]; kinase PIK3CA/PIK3R1, 1 μM) | %-inhibition of ROS ([4]; kinase ROS, 1 μM) | %-inhibition of PKACα ([5]; kinase PKACα, 1 μM) | %-inhibition of TNK1 ([6]; kinase TNK1, 1 μM) | %-inhibition of EEF2K ([7]; kinase EEF2K, compound at 1 μM) | %-inhibition of EPHA5 ([8]; kinase EPHA5, compound at 1 μM) | %-inhibition of MST3 ([9]; kinase MST3, 1 μM) | %-inhibition of NEK7 ([10]; kinase NEK7, 1 μM) | %-inhibition of EPHA5 ([8]; 1 µM) | %-inhibition of PDHK2 ([1]; 1 µM) | %-inhibition of MST3 ([9]; 1 µM) | %-inhibition of PIK3CA/PIK3R1 ([3]; 1 µM) | %-inhibition of ROS ([4]; 1 µM) | %-inhibition of PKACα ([5]; 1 µM) | %-inhibition of TNK1 ([6]; 1 µM) | %-inhibition of NEK7 ([10]; 1 µM) | %-inhibition of EEF2K ([7]; 1 µM) | %-inhibition of PDGFRα(T674I) ([2]; 1 µM) |
| --- | --- | --- | --- | --- | --- | --- | --- | --- | --- | --- | --- | --- | --- | --- | --- | --- | --- | --- | --- | --- |
| CN(C)C/C=C/C(=O)Nc1cc2c(Nc3ccc(F)c(Cl)c3)ncnc2cc1O[C@H]1CCOC1 [afatinib] | -2.76% | – | – | – | – | – | – | – | – | – | – | – | – | – | – | – | – | – | – | – |
| COc1cc(Nc2c(C#N)cnc3cc(OCCCN4CCN(C)CC4)c(OC)cc23)c(Cl)cc1Cl [bosutinib] | -3.29% | 57% | 37% | 2.77% | 58% | 11% | -7% | – | – | – | – | – | – | – | – | – | – | – | – | – |
| COc1cc2nccc(Oc3ccc(NC(=O)C4(C(=O)Nc5ccc(F)cc5)CC4)cc3)c2cc1OC [cabozantinib] | -1.54% | 97% | 48% | – | -4.67% | 89% | -4.74% | 99% | 0.432% | -6% | – | – | – | – | – | – | – | – | – | – |
| C[C@@H](Oc1cc(-c2cnn(C3CCNCC3)c2)cnc1N)c1c(Cl)ccc(F)c1Cl [crizotinib] | -3.51% | 95% | – | – | -6% | 41% | -4.6% | 71% | 11% | -5.3% | – | – | – | – | – | – | – | – | – | – |
| CC(C)(C)c1nc(-c2cccc(NS(=O)(=O)c3c(F)cccc3F)c2F)c(-c2ccnc(N)n2)s1 [dabrafenib] | 0.108% | 18% | 4.42% | 8.55% | – | 100% | – | – | 0.532% | 2.28% | – | – | – | – | – | – | – | – | – | – |
| Cc1nc(Nc2ncc(C(=O)Nc3c(C)cccc3Cl)s2)cc(N2CCN(CCO)CC2)n1 [dasatinib] | – | – | – | – | 0.736% | 4.31% | – | – | 20% | – | – | – | – | – | – | – | – | – | – | – |
| C#Cc1cccc(Nc2ncnc3cc(OCCOC)c(OCCOC)cc23)c1 [erlotinib] | – | – | – | – | – | – | – | – | – | – | 38% | -4% | 3.69% | 11% | 8.54% | 4.34% | 44% | 0.893% | -0.225% | – |
| CO[C@H]1C[C@@H]2CC[C@@H](C)[C@@](O)(O2)C(=O)C(=O)N2CCCC[C@H]2C(=O)O[C@H]([C@H](C)C[C@@H]2CC[C@@H](OCCO)[C@H](OC)C2)CC(=O)[C@H](C)/C=C(\C)[C@@H](O)[C@@H](OC)C(=O)[C@H](C)C[C@H](C)/C=C/C=C/C=C/1C [everolimus] | 4% | 0.248% | 22% | -0.608% | -6% | -0.4% | -14% | -1.69% | 0.288% | -11% | – | – | – | – | – | – | – | – | – | – |
| O=S(=O)(c1cccc2cnccc12)N1CCCNCC1 [fasudil] | -0.108% | 21% | -7% | 4.27% | – | – | -3.43% | -3.43% | -1.29% | -1.52% | – | – | – | – | – | – | – | – | – | – |
| CS(=O)(=O)CCNCc1ccc(-c2ccc3ncnc(Nc4ccc(OCc5cccc(F)c5)c(Cl)c4)c3c2)o1 [lapatinib] | -5% | – | – | 5.46% | 0.663% | -8.45% | -2.58% | 6% | -1.84% | – | – | – | – | -9% | – | – | – | -0.744% | – | 18% |
| Cc1cn(-c2cc(NC(=O)c3ccc(C)c(Nc4nccc(-c5cccnc5)n4)c3)cc(C(F)(F)F)c2)cn1 [nilotinib] | 0.549% | – | 16% | – | – | – | 6.34% | – | 0.797% | -3.77% | 93% | – | – | – | -0.679% | 3.31% | -4% | – | – | 45% |
| Cc1ccc(Nc2nccc(N(C)c3ccc4c(C)n(C)nc4c3)n2)cc1S(N)(=O)=O [pazopanib] | -4.23% | – | 45% | 94% | 2% | 42% | -3% | 32% | -4.48% | -4.75% | – | – | – | – | – | – | – | – | – | – |
| Cc1ccc(C(=O)Nc2ccc(CN3CCN(C)CC3)c(C(F)(F)F)c2)cc1C#Cc1cnc2cccnn12 [ponatinib] | -0.22% | 99% | 45% | 58% | – | 100% | -4% | – | – | -10% | – | – | – | – | – | – | – | – | – | – |
| CNC(=O)c1cc(Oc2ccc(NC(=O)Nc3ccc(Cl)c(C(F)(F)F)c3)c(F)c2)ccn1 [regorafenib] | 7% | 92% | 41% | 5% | -5.47% | 47% | -11% | 97% | -6.62% | -13% | – | – | – | – | – | – | – | – | – | – |
| N#CC[C@H](C1CCCC1)n1cc(-c2ncnc3[nH]ccc23)cn1 [ruxolitinib] | -4% | 17% | 42% | – | – | 31% | -6% | – | -1.15% | -1.81% | 18% | – | – | – | 54% | 48% | – | – | – | – |
